Source: PubChem BioAssay (NCI)
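Briefly, cells in 96-well plates were exposed to five compound concentrations for 48 h, and endpoints were estimated by linear interpolation. At the GI50, growth is halved. TGI is the concentration that stops growth completely.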

Legend:
Experiment in all cases: DTP human tumour cell line panel, 48 h
K-562 leukemia = test system: K-562 leukemia
MOLT-4 leukemia = test system: MOLT-4 leukemia
NCI/ADR-RES ovarian = test system: NCI/ADR-RES ovarian
OVCAR-3 ovarian = test system: OVCAR-3 ovarian
OVCAR-4 ovarian = test system: OVCAR-4 ovarian
OVCAR-5 ovarian = test system: OVCAR-5 ovarian
RPMI-8226 leukemia = test system: RPMI-8226 leukemia
SR leukemia = test system: SR leukemia
M14 melanoma = test system: M14 melanoma
NCI-H522 lung = test system: NCI-H522 lung

Structure (SMILES)	GI50 (K-562 leukemia) [µM]	TGI (K-562 leukemia) [µM]	GI50 (MOLT-4 leukemia) [µM]	TGI (MOLT-4 leukemia) [µM]	GI50 (NCI/ADR-RES ovarian) [µM]	TGI (NCI/ADR-RES ovarian) [µM]	GI50 (OVCAR-3 ovarian) [µM]	TGI (OVCAR-3 ovarian) [µM]	GI50 (OVCAR-4 ovarian) [µM]	TGI (OVCAR-4 ovarian) [µM]	GI50 (OVCAR-5 ovarian) [µM]	TGI (OVCAR-5 ovarian) [µM]	GI50 (RPMI-8226 leukemia) [µM]	TGI (RPMI-8226 leukemia) [µM]	GI50 (SR leukemia) [µM]	TGI (SR leukemia) [µM]	TGI (M14 melanoma) [µM]	TGI (NCI-H522 lung) [µM]	GI50 (M14 melanoma) [µM]	GI50 (NCI-H522 lung) [µM]
CCN(CC)CCN1CC(O)=C(c2nc(-c3ccc(Cl)cc3)cs2)C1=N	1.42	3.04	1.87	4.42	9.12	> 100	4.06	20.4	18.3	> 100	6.38	31.3	2	5.09	1.43	3.7				
COc1ccc2c(c1)C=C([N+](=O)[O-])C(C1OC(C)(C)OC1C1COC(C)(C)O1)O2 (configuration not stated)		4.88		6.51				21.8		21.3		20.7		4.54		6.93	6.15	2.29		
CN(C)CCNC(=O)c1cccc(C(=O)Nc2ccccc2)c1[N+](=O)[O-]		> 100		> 100		> 100		> 100				> 100				> 100	> 100	> 100		
COc1cc[nH]c1/C=C1\C(=O)Nc2ccccc21	16.9	> 25	11	> 25	15.5	> 25	> 21.5	> 25	8.02	> 25	15.3	> 25	14.5	> 25	6.44	> 22.7	> 25	> 25	4.98	12.7
COc1ccc(-c2cn3ccsc3n2)cc1		> 100		> 100				> 100		> 100		> 100		54.6		75.6	> 100	> 100		
Cc1cc(SCC(=O)c2ccccc2)nc2ccccc12		> 100		> 100		> 100		> 100		> 100		> 100		> 100		> 100	> 100	> 100		
COc1ccc(OC)c(/C=C/C(=O)N/N=C/c2ccc(Cl)cc2)c1	0.042	> 100	0.213	> 100	0.0364	0.215	0.0285	0.0875	1.41	> 100	15.3	> 100	0.286	> 39.6	0.0389	16.4	> 25.9	5.72	0.0633	0.0298
CCc1[nH]c(=O)nc(N)c1-c1ccc(N2CCCCC2)c([N+](=O)[O-])c1		> 100		> 100		> 100		> 100		> 100		> 100		> 100		> 100	> 100	> 100		
CN/N=C(/CCN1CCCC1)CC(c1ccccc1)c1c(O)c2ccccc2oc1=O (configuration not stated)		> 100		> 100		> 100		> 100		> 100		> 100		> 31.6		> 100	> 100	> 100		
